Laboratory results from patent US12281057B2 (VERTEX PHARMACEUTICALS INCORPORATED, priority 2017, dated 2025).

molecular target: truncated form of human NaV 1.8 with full channel activity (Homo sapiens, UniProt Q9Y5Y9); assay: E-VIPR Assay Method A for detecting and measuring Nav inhibition (HEK cells, membrane potential FRET dyes, electrical stimulation); type: cell-based; conditions: HEK cells expressing human NaV 1.8, HS (human serum) in compound loading buffer, 11 point dose response, top dose 3 μM, Table 20A, read-out: Nav 1.8 MedChem Optical Assay EVIPR Assay Method A HS IC50
Summary of the method: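 HEK cells expressing truncated human NaV1.8, loaded with CC2-DMPE/DiSBAC6(3) FRET dyes, incubated 30 min at room temp with compound (0.625% DMSO), then electrically stimulated (1.25 A biphasic, 10 Hz, 10 s). Inhibition from 460/580 nm ratio Rf/Ri, normalised to positive and DMSO controls.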

Chain of truncated form of human NaV 1.8 with full channel activity (Q9Y5Y9 126-1722 limits assumed): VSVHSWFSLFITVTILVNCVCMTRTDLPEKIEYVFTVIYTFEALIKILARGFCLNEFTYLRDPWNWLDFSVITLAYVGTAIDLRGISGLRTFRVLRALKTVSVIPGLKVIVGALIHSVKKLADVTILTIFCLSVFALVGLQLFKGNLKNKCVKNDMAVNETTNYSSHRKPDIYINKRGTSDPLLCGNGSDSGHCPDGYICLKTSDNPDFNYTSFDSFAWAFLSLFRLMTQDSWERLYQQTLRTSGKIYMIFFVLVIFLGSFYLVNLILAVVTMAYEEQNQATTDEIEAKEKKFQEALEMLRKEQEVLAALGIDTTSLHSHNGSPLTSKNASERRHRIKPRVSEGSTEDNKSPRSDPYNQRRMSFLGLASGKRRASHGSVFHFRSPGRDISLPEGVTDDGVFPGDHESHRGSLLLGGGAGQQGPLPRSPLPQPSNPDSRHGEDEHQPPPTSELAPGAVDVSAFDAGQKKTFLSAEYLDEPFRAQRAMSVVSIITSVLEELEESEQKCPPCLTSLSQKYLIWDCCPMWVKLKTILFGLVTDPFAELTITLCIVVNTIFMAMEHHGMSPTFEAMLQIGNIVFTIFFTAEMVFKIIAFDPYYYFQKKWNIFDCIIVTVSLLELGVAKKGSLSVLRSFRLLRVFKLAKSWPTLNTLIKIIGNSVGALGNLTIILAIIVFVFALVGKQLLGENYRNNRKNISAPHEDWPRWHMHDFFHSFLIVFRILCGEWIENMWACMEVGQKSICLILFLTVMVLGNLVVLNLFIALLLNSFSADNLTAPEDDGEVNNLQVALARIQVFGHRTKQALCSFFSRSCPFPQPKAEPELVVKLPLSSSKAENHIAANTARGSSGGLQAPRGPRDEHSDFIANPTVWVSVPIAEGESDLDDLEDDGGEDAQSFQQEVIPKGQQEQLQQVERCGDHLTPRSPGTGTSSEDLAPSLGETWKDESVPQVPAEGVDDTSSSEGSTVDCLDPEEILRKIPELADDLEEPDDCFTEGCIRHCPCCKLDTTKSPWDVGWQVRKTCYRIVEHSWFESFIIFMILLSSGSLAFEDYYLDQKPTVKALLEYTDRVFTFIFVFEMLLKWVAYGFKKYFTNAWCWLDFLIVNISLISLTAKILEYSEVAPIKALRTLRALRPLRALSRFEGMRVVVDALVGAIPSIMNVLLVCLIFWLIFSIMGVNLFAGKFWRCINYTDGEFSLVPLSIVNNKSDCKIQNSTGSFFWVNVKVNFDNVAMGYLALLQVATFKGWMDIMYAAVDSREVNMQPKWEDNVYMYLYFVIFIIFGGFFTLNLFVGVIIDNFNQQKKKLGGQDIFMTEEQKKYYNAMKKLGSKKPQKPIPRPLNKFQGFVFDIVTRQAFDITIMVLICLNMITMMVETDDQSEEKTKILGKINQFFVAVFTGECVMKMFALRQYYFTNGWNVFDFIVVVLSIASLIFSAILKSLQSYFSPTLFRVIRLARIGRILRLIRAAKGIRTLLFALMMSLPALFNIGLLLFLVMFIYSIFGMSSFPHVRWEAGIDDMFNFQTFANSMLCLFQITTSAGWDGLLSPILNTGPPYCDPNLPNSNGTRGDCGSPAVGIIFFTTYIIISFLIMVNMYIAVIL

Going from COc1cc(OC(F)(F)F)ccc1Oc1cc(C(F)(F)F)cc(F)c1C(=O)Nc1cc(C(N)=O)c(F)cc1C [Compound 139, 2-Fluoro-5-[[2-fluoro-6-[2-methoxy-4-(trifluoromethoxy)phenoxy]-4-(trifluoromethyl)benzoyl]amino]-4-methyl-benzamide] to COc1cc(OC(F)(F)F)ccc1Oc1cc(C(F)(F)F)cc(F)c1C(=O)Nc1ccc(F)c(C(N)=O)c1 [Compound 140, N-(3-Carbamoyl-4-fluoro-phenyl)-2-fluoro-6-[2-methoxy-4-(trifluoromethoxy)phenoxy]-4-(trifluoromethyl)benzamide], the IC50 falls from 85 nM to 5 nM (17-fold). The second is the more potent here.

Going from NC(=O)c1cc(NC(=O)c2c(Oc3ccc(OC(F)(F)F)c(O)c3)ccc(C(F)(F)F)c2F)ccc1F [Compound 141, N-(3-Carbamoyl-4-fluoro-phenyl)-2-fluoro-6-[3-hydroxy-4-(trifluoromethoxy)phenoxy]-3-(trifluoromethyl)benzamide] to NC(=O)c1cc(NC(=O)c2c(Oc3ccc(OC(F)(F)F)cc3O)ccc(C(F)(F)F)c2F)ccc1F [Compound 142, N-(3-Carbamoyl-4-fluoro-phenyl)-2-fluoro-6-[2-hydroxy-4-(trifluoromethoxy)phenoxy]-3-(trifluoromethyl)benzamide], the IC50 rises from 103 nM to 310 nM (3-fold).

Going from COc1cc(OC(F)(F)F)ccc1Oc1cnc(C(F)(F)F)c(F)c1C(=O)Nc1cc(C(N)=O)ncc1C [Compound 143, N-(2-Carbamoyl-5-methyl-4-pyridyl)-3-fluoro-5-[2-methoxy-4-(trifluoromethoxy)phenoxy]-2-(trifluoromethyl)pyridine-4-carboxamide] to COc1cc(OC(F)(F)F)ccc1Oc1cnc(C(F)(F)F)c(OC)c1C(=O)Nc1cc(C(N)=O)ncc1C [Compound 144, N-(2-Carbamoyl-5-methyl-4-pyridyl)-3-methoxy-5-[2-methoxy-4-(trifluoromethoxy)phenoxy]-2-(trifluoromethyl)pyridine-4-carboxamide], the IC50 rises from 10 nM to 23 nM (2.3-fold).

First: [2H]C([2H])([2H])Oc1cc(OC(F)(F)F)ccc1Oc1ccc(C(F)(F)F)c(F)c1C(=O)Nc1ccc(C)c(C(N)=O)c1 [Compound 145, N-(3-carbamoyl-4-methyl-phenyl)-2-fluoro-6-[2-(trideuteriomethoxy)-4-(trifluoromethoxy)phenoxy]-3-(trifluoromethyl)benzamide]
Second: [2H]C([2H])([2H])Oc1cc(OC(F)(F)F)ccc1Oc1ccc(C(F)(F)F)c(F)c1C(=O)Nc1cnc(C(N)=O)cc1C [Compound 161, 5-[[2-fluoro-6-[2-(trideuteriomethoxy)-4-(trifluoromethoxy)phenoxy]-3-(trifluoromethyl)benzoyl]amino]-4-methyl-pyridine-2-carboxamide]
The IC50 of the first is 17-fold lower: 9 nM for the first, 150 nM for the second. The first is the more potent here.

Going from [2H]C([2H])([2H])Oc1cc(OC(F)(F)F)ccc1Oc1ccc(C(F)(F)F)c(OC)c1C(=O)Nc1cc(C(N)=O)ncc1C [Compound 146, 4-[[2-Methoxy-6-[2-(trideuteriomethoxy)-4-(trifluoromethoxy)phenoxy]-3-(trifluoromethyl)benzoyl]amino]-5-methyl-pyridine-2-carboxamide] to COc1cc(OC(F)(F)F)ccc1Oc1ccc(C(F)(F)F)c(F)c1C(=O)Nc1cc(C(N)=O)ncc1Cl [Compound 152, 5-Chloro-4-[[2-fluoro-6-[2-methoxy-4-(trifluoromethoxy)phenoxy]-3-(trifluoromethyl)benzoyl]amino]pyridine-2-carboxamide], the IC50 falls from 39 nM to 17 nM (2.3-fold).

[2H]C([2H])([2H])Oc1cc(OC(F)(F)F)ccc1Oc1cc(OC(F)(F)F)ccc1C(=O)Nc1ccnc(C(N)=O)c1 [Compound 147, 4-[[2-[2-(Trideuteriomethoxy)-4-(trifluoromethoxy)phenoxy]-4-(trifluoromethoxy)benzoyl]amino]pyridine-2-carboxamide] and [2H]C([2H])([2H])Oc1cc(OC(F)(F)F)ccc1Oc1ccc(OC(F)(F)F)cc1C(=O)Nc1ccnc(C(N)=O)c1 [Compound 158, 4-[[2-[2-(Trideuteriomethoxy)-4-(trifluoromethoxy)phenoxy]-5-(trifluoromethoxy)benzoyl]amino]pyridine-2-carboxamide] are within 1.5-fold of each other in IC50: 130 nM for the first, 150 nM for the second.

COc1cc(F)ccc1Oc1cc(OC(F)(F)F)ccc1C(=O)Nc1ccnc(C(N)=O)c1 [Compound 148, 4-[[2-(4-Fluoro-2-methoxy-phenoxy)-4-(trifluoromethoxy)benzoyl]amino]pyridine-2-carboxamide] and COc1cc(F)ccc1Oc1ccc(OC(F)(F)F)cc1C(=O)Nc1ccnc(C(N)=O)c1 [Compound 157, 4-[[2-(4-Fluoro-2-methoxy-phenoxy)-5-(trifluoromethoxy)benzoyl]amino]pyridine-2-carboxamide] are within 1.5-fold of each other in IC50: 850 nM for the first, 1000 nM for the second.

Compared with NC(=O)c1cc(NC(=O)c2ccc(OC(F)(F)F)cc2Oc2ccc(OC(F)(F)F)cc2)ccn1 [Compound 149, 4-[[4-(Trifluoromethoxy)-2-[4-(trifluoromethoxy)phenoxy]benzoyl]amino]pyridine-2-carboxamide], NC(=O)c1cc(NC(=O)c2cc(OC(F)(F)F)ccc2Oc2ccc(OC(F)(F)F)cc2)ccn1 [Compound 156, 4-[[5-(Trifluoromethoxy)-2-[4-(trifluoromethoxy)phenoxy]benzoyl]amino]pyridine-2-carboxamide] is 2.7-fold lower in IC50: 1500 nM for the first, 560 nM for the second.

First: COc1cc(OC(F)(F)F)ccc1Oc1ccc(Cl)cc1C(=O)Nc1cc(C(N)=O)ncc1C [Compound 150, 4-[[5-Chloro-2-[2-methoxy-4-(trifluoromethoxy)phenoxy]benzoyl]amino]-5-methyl-pyridine-2-carboxamide]
Second: COc1cc(OC(F)(F)F)ccc1Oc1cncc(F)c1C(=O)Nc1cc(C(N)=O)ncc1C [Compound 151, 4-[[3-Fluoro-5-[2-methoxy-4-(trifluoromethoxy)phenoxy]pyridine-4-carbonyl]amino]-5-methyl-pyridine-2-carboxamide]
The IC50 of the first is 1.8-fold lower: 290 nM for the first, 520 nM for the second.

Going from COc1cc(OC(F)(F)F)ccc1Oc1cc(C(F)(F)F)cc(F)c1C(=O)Nc1cc(C(N)=O)ncc1C [Compound 153, 4-[[2-Fluoro-6-[2-methoxy-4-(trifluoromethoxy)phenoxy]-4-(trifluoromethyl)benzoyl]amino]-5-methyl-pyridine-2-carboxamide] to COc1cc(OC(F)(F)F)ccc1Oc1cc(C(F)(F)F)cc(F)c1C(=O)Nc1ccnc(C(N)=O)c1 [Compound 163, 4-[[2-Fluoro-6-[2-methoxy-4-(trifluoromethoxy)phenoxy]-4-(trifluoromethyl)benzoyl]amino]pyridine-2-carboxamide], the IC50 falls from 22 nM to 11 nM (2-fold).

[2H]C([2H])([2H])Oc1cc(OC(F)(F)F)ccc1Oc1cc(C(F)(F)F)cc(F)c1C(=O)Nc1ccc(C(N)=O)nc1 [Compound 154] and [2H]C([2H])([2H])Oc1cc(OC(F)(F)F)ccc1Oc1ccc(OC(F)(F)F)c(F)c1C(=O)Nc1ccc(C(N)=O)nc1 [Compound 167, 5-[[2-fluoro-6-[2-(trideuteriomethoxy)-4-(trifluoromethoxy)phenoxy]-3-(trifluoromethoxy)benzoyl]amino]pyridine-2-carboxamide] are within 1.5-fold of each other in IC50: 55 nM for the first, 45 nM for the second.

Going from [2H]C([2H])([2H])Oc1cc(OC(F)(F)F)ccc1Oc1ccc(OC(F)F)c(F)c1C(=O)Nc1ccnc(C(N)=O)c1 [Compound 155, 4-[[3-(Difluoromethoxy)-2-fluoro-6-[2-(trideuteriomethoxy)-4-(trifluoromethoxy)phenoxy]benzoyl]amino]pyridine-2-carboxamide] to COc1cc(OC(F)(F)F)ccc1Oc1cncc(F)c1C(=O)Nc1ccnc(C(N)=O)c1 [Compound 165, N-(2-Carbamoyl-4-pyridyl)-3-fluoro-5-[2-methoxy-4-(trifluoromethoxy)phenoxy]pyridine-4-carboxamide], the IC50 rises from 17 nM to 340 nM (20-fold). The first is the more potent here.

Going from COc1cc(F)ccc1Oc1cc(C(F)(F)F)cc(C(F)(F)F)c1C(=O)Nc1ccc(C(N)=O)nc1 [Compound 159, 5-[[2-(4-Fluoro-2-methoxy-phenoxy)-4,6-bis(trifluoromethyl)benzoyl]amino]pyridine-2-carboxamide] to NC(=O)c1cc(NC(=O)c2c(Oc3ccc(OC(F)(F)F)cc3)cc(C(F)(F)F)cc2C(F)(F)F)ccn1 [Compound 160, 4-[[2-[4-(Trifluoromethoxy)phenoxy]-4,6-bis(trifluoromethyl)benzoyl]amino]pyridine-2-carboxamide], the IC50 falls from 1700 nM to 410 nM (4.1-fold).

Compared with COc1cc(F)ccc1-c1cc(C(F)(F)F)ccc1C(=O)Nc1ccc(F)c(C(N)=O)c1 [Compound 162, N-(3-carbamoyl-4-fluoro-phenyl)-2-(4-fluoro-2-methoxy-phenyl)-4-(trifluoromethyl)benzamide], COc1cc(OC(F)(F)F)ccc1Oc1cncc(F)c1C(=O)Nc1ccc(F)c(C(N)=O)n1 [Compound 164, 3-Fluoro-6-[[3-fluoro-5-[2-methoxy-4-(trifluoromethoxy)phenoxy]pyridine-4-carbonyl]amino]pyridine-2-carboxamide] is 9.4-fold higher in IC50: 170 nM for the first, 1600 nM for the second. The first is the more potent here.

Going from COc1cc(OC(F)(F)F)ccc1Oc1cnc(C(F)(F)F)c(OC)c1C(=O)Nc1ccnc(C(N)=O)c1 [Compound 166, N-(2-Carbamoyl-4-pyridyl)-3-methoxy-5-[2-methoxy-4-(trifluoromethoxy)phenoxy]-2-(trifluoromethyl)pyridine-4-carboxamide] to COc1cc(OC(F)(F)F)ccc1Oc1ccc(C(F)(F)F)c(F)c1C(=O)Nc1cccc(C(N)=O)n1 [Compound 169, 6-[[2-Fluoro-6-[2-methoxy-4-(trifluoromethoxy)phenoxy]-3-(trifluoromethyl)benzoyl]amino]pyridine-2-carboxamide], the IC50 rises from 5 nM to 113 nM (23-fold). The first is the more potent here.

[2H]C([2H])([2H])Oc1cc(OC(F)(F)F)ccc1Oc1ccc(C(F)(F)F)c(F)c1C(=O)Nc1cccc(C(N)=O)n1 [Compound 168, 6-[[2-Fluoro-6-[2-(trideuteriomethoxy)-4-(trifluoromethoxy)phenoxy]-3-(trifluoromethyl)benzoyl]amino]pyridine-2-carboxamide] gave an IC50 of 140 nM.
